Assay results published in patent US20080132520A1, “COMPOSITIONS, KITS AND METHODS FOR ADMINISTERING A TITRATION SCHEDULE COMPRISING BIFEPRUNOX COMPOUNDS” (priority 2006, published 2008).

Legend:
[1] = Clinical investigations on bifeprunox mesylate: tolerability; conditions: human, in vivo
[2] = target: T1, serotonin 5-HT1A receptors (Homo sapiens, UniProt P08908); conditions: cited from earlier work
T1 sequence (P08908 1-422): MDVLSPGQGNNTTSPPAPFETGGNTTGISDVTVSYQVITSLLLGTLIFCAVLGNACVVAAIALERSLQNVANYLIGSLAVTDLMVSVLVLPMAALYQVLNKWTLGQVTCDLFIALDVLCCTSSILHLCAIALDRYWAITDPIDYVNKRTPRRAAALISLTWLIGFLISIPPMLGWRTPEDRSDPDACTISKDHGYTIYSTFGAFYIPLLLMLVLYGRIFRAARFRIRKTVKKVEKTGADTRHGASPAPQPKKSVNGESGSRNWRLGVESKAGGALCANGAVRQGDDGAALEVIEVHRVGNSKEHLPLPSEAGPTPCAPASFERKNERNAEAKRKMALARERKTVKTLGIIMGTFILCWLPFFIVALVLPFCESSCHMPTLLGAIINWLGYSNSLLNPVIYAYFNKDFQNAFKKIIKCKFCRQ

[3] = test system: dopamine D2/3 receptors; conditions: cited from earlier work
[4] = Rapid titration study: efficacy assessments (PANSS, CGI-S, CGI-I); assay type: in vivo, human; conditions: short treatment period, titration to 40 mg/day plus 3-day maintenance
Experimental: This study represented a randomized, double-blinded, placebo-controlled, sequential panel, rapid titration study of the safety and tolerability of bifeprunox compounds in subjects with schizophrenia. […] Efficacy assessments (i.e., Positive and Negative Symptoms of Schizophrenia (PANSS) and Clinical Global Impression-Severity (CGI-S) were performed at screening, Day-1 and at the final assessment; Clinical Global Impressions-improvement (CGI-I was performed at the final assessment only. […] The treatment phase lasted approximately two weeks, including follow-up assessment. Subjects remained hospitalized until the post-treatment follow-up assessment was completed or until their condition had clinically stabilized.

[5] = Randomized, double-blinded, placebo-controlled, sequential panel, rapid titration study: safety and tolerability; assay type: in vivo, human
Experimental: This study represented a randomized, double-blinded, placebo-controlled, sequential panel, rapid titration study of the safety and tolerability of bifeprunox compounds in subjects with schizophrenia. In particular, this study assessed the safety, tolerability and efficacy after a rapid titration of bifeprunox to a therapeutic dose of 40 mg/day in schizophrenia and schizoaffective subjects. Eligible subjects were hospitalized at the start of the screening period and entered a single-blind placebo run-in period (day -7 to -1) to assure that the 7-day antipsychotic drug-free criterion was met prior to bifeprunox titration. Subjects then began rapid titration at an initial bifeprunox starting dose of 0.25 mg with a high proposed therapeutic dose of 40 mg/day. Two titration schedules were evaluated in sequential order, with the titration period lasting 6 to 7 days depending on the titration schedule (Day 1 to Day 6 or 7).
Each listed dose in the titration schedule was administered once daily (QD) followed by the next higher dose the following day. […] Only one repeat dose, however, was allowed during the entire titration period. Upon reaching the high proposed dose of 40 mg/day, the subject entered a 3-day maintenance period for this dose. Final assessments were performed on the day after the last maintenance period dose and follow-up assessments were performed 3 days after the last dose of study treatment.
Efficacy assessments (i.e., Positive and Negative Symptoms of Schizophrenia (PANSS) and Clinical Global Impression-Severity (CGI-S) were performed at screening, Day-1 and at the final assessment; Clinical Global Impressions-improvement (CGI-I was performed at the final assessment only. Safety was monitored throughout the study by assessment of physical examination, vital signs, adverse events (AEs), concomitant medications, clinical laboratory assessments, 12-lead electrocardiograms (ECGs), Simpson-Angus Scale (SAS) score and Barnes Akathisia Scale (BAS) score. The treatment phase lasted approximately two weeks, including follow-up assessment. Subjects remained hospitalized until the post-treatment follow-up assessment was completed or until their condition had clinically stabilized.
The study planned to include 20 subjects (10 subjects per panel). Twenty-seven subjects were screened and 18 were randomized (7 to bifeprunox and 1 to placebo in titration schedule 1 and 8 to bifeprunox and 2 to placebo titration schedule 2c). Ten subjects per panel were initially available as planned. Two subjects, however, dropped out of the first panel before the start of the study. As such, the study proceeded with the eighteen subjects.
Males and females between 18-55 years old meeting Diagnostic and Statistical Manual of Mental Disorders, 4th edition, Text Revised (DSM-IV TR) diagnosis of Schizophrenia disorder (295.10, 295.20, 295.30, 295.60 and 295.90) or Schizoaffevtive disorder (295.70).
Bifeprunox were tablets taken orally at a total daily dose of 0.25 mg to 40 mg in the following titration schedules:
Placebo tablets matching the bifeprunox tablets were taken orally using the same dosing regimen as the test product.

Row | SMILES | tolerability during clinical investigations [1] | functional activity at serotonin 5-HT1A receptors [2] | functional activity at dopamine D2/3 receptors [3] | benefit over placebo in severity of symptoms of schizophrenia (PANSS total scores, CGI-S and CGI-I scores, responder rate) [4] | subjects with TEAEs leading to discontinuation of the study treatment ([5]; titration schedule 1) | subjects with at least 1 TEAE related to study treatment ([5]; titration schedule 1) | subjects with vital sign abnormalities on the same day as relevant AEs (dizziness or orthostatic hypotension) ([5]; titration schedule 1) | tolerability of daily increases to 20 to 40 mg once the 10 mg dose was reached ([5]; titration schedule 1) | subjects reporting at least one treatment emergent adverse event (TEAE) ([5]; titration schedule 1 (0.25, 1, 5, 10, 20, 40 mg QD oral over 6 days), 7 subjects on bifeprunox) | TEAEs at the 20 mg dose level ([5]; titration schedule 1, 20 mg dose level) | subjects reporting TEAEs considered to be severe ([5]; titration schedule 1, severe TEAEs at the 1, 5 and 10 dose levels) | TEAEs of anorexia, gait abnormal NOS or orthostatic hypotension ([5]; titration schedule 2c) | additional subjects requiring re-challenge of a dose level who completed titration up to 40 mg ([5]; titration schedule 2c) | subjects with TEAEs related to the study treatment ([5]; titration schedule 2c) | subjects with vital sign abnormalities same days as AEs of dizziness ([5]; titration schedule 2c) | subjects reporting at least one TEAE ([5]; titration schedule 2c (0.25, 0.5, 2, 5, 10, 20, 40 mg QD oral over 7 days), 8 subjects on bifeprunox) | tolerability of titration from 0.25 mg to 40 mg over 7 days versus over a 6-day period ([5]; titration schedule 2c versus 1) | subjects with TEAE leading to discontinuation of the study treatment ([5]; titration schedule 2c, TEAE of dizziness) | subjects reporting TEAEs considered to be severe ([5]; titration schedule 2c, severe TEAEs at the 2 mg and 5 mg dose level) | effects on BAS, SAS, ECG or clinical laboratory evaluations ([5]; titration schedules 1 and 2c)
1 | CS(=O)(=O)O.O=c1[nH]c2cccc(N3CCN(Cc4cccc(-c5ccccc5)c4)CC3)c2o1 [bifeprunox mesylate, 7-[4-([1,1′-biphenyl]-3-ylmethyl)-1-piperazinyl]-2(3H)-benzoxazolone monomethane-sulfonate] | well tolerated | – | – | – | – | – | – | – | – | – | – | – | – | – | – | – | – | – | – | –
2 | O=c1[nH]c2cccc(N3CCN(Cc4cccc(-c5ccccc5)c4)CC3)c2o1 [bifeprunox, 7-[4-([1,1′-biphenyl]-3-ylmethyl)-1-piperazinyl]-2(3H)-benzoxa-zolone] | – | partial agonist | partial agonist | little benefit | Three subjects | All subjects | Two subjects | well-tolerated | All subjects | No TEAEs occurred | Three subjects | no TEAEs | Two additional subjects | Six out of 8 | Four subjects | All subjects | better tolerated | One subject | Three subjects | Neither titration schedule of bifeprunox appeared to have any effects
